Structures are written as SMILES. Where two headings read alike, the source gives them in different places.

As a reminder, the EC50 is the concentration at which the effect is half-maximal.

The test system of the test is LPS-induced TNFα in monocyte-derived macrophages. The experiment in a line: MdM assay: LPS-triggered TNFα (ELISA). It is filed as cell-based, human. The procedure, abridged: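 TNFα secretion quantified by streptavidin-HRP/luminol sandwich ELISA in supernatants collected 20 h after LPS (200 ng/mL). Macrophages derived from magnetically isolated human CD14+ monocytes were used at day 10, with compound added 1 h before LPS; final DMSO 0.2%.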

The mark [1] stands for this setting: Homo sapiens, Macrophage, 20 h, read-out: TNFα EC50 (nM).
[2] abbreviates: Macrophage, human MdM, LPS 200 ng/mL, supernatant after 20 h, inhibition of TNFα, read-out: TNFα EC50.
The mark [3] stands for this setting: human MdM, LPS 200 ng/mL, supernatant after 20 h, inhibition of TNFα, read-out: TNFα EC50.

Turning to `[2H]C([2H])([2H])C(C#N)(c1ccc2c(-c3cc(OC)c(C(=O)N[C@@H]4C[C@@H]4F)c(OC(F)F)c3)cnn2c1)C([2H])([2H])[2H]` [Cpd 275, 4-[6-[1-cyano-2,2,2-trideuterio-1-(trideuteriomethyl)ethyl]pyrazolo[1,5-a]pyridin-3-yl]-2-(difluoromethoxy)-N-[(1R,2S)-2-fluorocyclopropyl]-6-methoxy-benzamide], under setting [1], the EC50 was in the range of 100 to 1000 nM.

Consider `COc1cc(-c2cnc3cc(C(C)(C)C#N)ccn23)cc(OC(F)F)c1C(=O)NC1CC1` [Cpd 19, 4-[7-(1-cyano-1-methyl-ethyl)imidazo[1,2-a]pyridin-3-yl]-N-cyclopropyl-2-(difluoromethoxy)-6-methoxy-benzamide], for which, under setting [2], the EC50 was in the range of 100 to 1000 nM.

As for `COc1cc(-c2cnc3cc(C(C)(O)C4CC4)ccn23)cc(OC(F)F)c1C(=O)NC1CC1` (centres unmarked) [Cpd 138, N-cyclopropyl-4-[7-(1-cyclopropyl-1-hydroxy-ethyl)imidazo[1,2-a]pyridin-3-yl]-2-(difluoromethoxy)-6-methoxy-benzamide], under setting [2], the EC50 fell in the range of 100 to 1000 nM.

Turning to `COc1cc(-c2cnn3cc(C(C)(C)CO)ccc23)cc(OC(F)F)c1C(=O)N[C@@H]1C[C@@H]1F` [Cpd 242, 2-(difluoromethoxy)-N-[(1R,2S)-2-fluorocyclopropyl]-4-[6-(2-hydroxy-1,1-dimethyl-ethyl)pyrazolo[1,5-a]pyridin-3-yl]-6-methoxy-benzamide], the EC50 under setting [2] was in the range of 100 to 1000 nM.

On to `COc1cc(-c2cnn3cc(C(C)(C)CN4CCOCC4)ccc23)cc(OC(F)F)c1C(=O)N[C@@H]1C[C@@H]1F` [Cpd 269, 2-(difluoromethoxy)-4-[6-(1,1-dimethyl-2-morpholino-ethyl)pyrazolo[1,5-a]pyridin-3-yl]-N-[(1R,2S)-2-fluorocyclopropyl]-6-methoxy-benzamide], for which the EC50 under setting [2] is 100 to 1000 nM.

On to `COc1cc(-c2cnn3cc(C(C)(C)C#N)ccc23)cc(OC(F)F)c1C(=O)N[C@@H]1C[C@@H]1F` [Cpd 219, 4-[6-(1-cyano-1-methyl-ethyl)pyrazolo[1,5-a]pyridin-3-yl]-2-(difluoromethoxy)-N-[(1R,2S)-2-fluorocyclopropyl]-6-methoxy-benzamide], for which the EC50 under setting [1] fell in the range of 100 to 1000 nM.

On to `COc1cc(-c2cnc3cc(C(C)(C)C#N)ccn23)cc(OC(F)F)c1C(=O)N1CC(F)(F)C1` [Cpd 69, 2-[3-[4-(3,3-difluoroazetidine-1-carbonyl)-3-(difluoromethoxy)-5-methoxy-phenyl]imidazo[1,2-a]pyridin-7-yl]-2-methyl-propanenitrile], for which the EC50 under setting [2] is 100 to 1000 nM.

For the compound `COc1cc(-c2cnc3cc(C(F)(F)CO)ccn23)cc(OC(F)F)c1C(=O)NC1CC1` [Cpd 136, N-cyclopropyl-4-[7-(1,1-difluoro-2-hydroxy-ethyl)imidazo[1,2-a]pyridin-3-yl]-2-(difluoromethoxy)-6-methoxy-benzamide], the EC50 under setting [2] was in the range of 100 to 1000 nM.

With `COc1cc(-c2cnc3cc(C(C)(C)N)ccn23)cc(OC(F)F)c1C(=O)NC1CC1` [Cpd 106, 4-[7-(1-amino-1-methyl-ethyl)imidazo[1,2-a]pyridin-3-yl]-N-cyclopropyl-2-(difluoromethoxy)-6-methoxy-benzamide], the EC50 under setting [2] was in the range of 100 to 1000 nM.

As for `COc1cc(-c2cnc3cc(C4COC4)ccn23)cc(OC(F)F)c1C(=O)NC1CC1` [Cpd 174, N-cyclopropyl-2-(difluoromethoxy)-6-methoxy-4-[7-(oxetan-3-yl)imidazo[1,2-a]pyridin-3-yl]benzamide], under setting [2], the EC50 was 100 to 1000 nM.

In the case of `COc1cc(-c2cnc3cc(C(C)(O)C(F)(F)F)ccn23)cc(OC(F)F)c1C(=O)NC1CC1` (centres unmarked) [Cpd 129, N-cyclopropyl-2-(difluoromethoxy)-6-methoxy-4-[7-(2,2,2-trifluoro-1-hydroxy-1-methyl-ethyl)imidazo[1,2-a]pyridin-3-yl]benzamide], the EC50 under setting [2] was 100 to 1000 nM.

Turning to `COc1cc(-c2cnc3cc(C(C)(C)O)ccn23)cc(OC(F)F)c1C(=O)N[C@@H]1C[C@@H]1F` [Cpd 211, 2-(difluoromethoxy)-N-[(1R,2S)-2-fluorocyclopropyl]-4-[7-(1-hydroxy-1-methyl-ethyl)imidazo[1,2-a]pyridin-3-yl]-6-methoxy-benzamide], the EC50 under setting [2] was in the range of 100 to 1000 nM.

As to `COc1cc(-c2cnc3cc(C(C)(C)C(C)O)ccn23)cc(OC(F)F)c1C(=O)NC1CC1` (centres unmarked) [Cpd 172, N-cyclopropyl-2-(difluoromethoxy)-4-[7-(2-hydroxy-1,1-dimethyl-propyl)imidazo[1,2-a]pyridin-3-yl]-6-methoxy-benzamide], under setting [2], the EC50 lay in the range of 100 to 1000 nM.

In the case of `COc1cc(-c2cnn3cc(C(C)(C)C#N)ccc23)cc(OC(F)F)c1C(=O)NC1CC1` [Cpd 208, 4-[6-(1-cyano-1-methyl-ethyl)pyrazolo[1,5-a]pyridin-3-yl]-N-cyclopropyl-2-(difluoromethoxy)-6-methoxy-benzamide], the EC50 under setting [2] lay within 100 to 1000 nM.

Turning to `COc1cc(-c2cnn3cc(C4CCOCC4)cnc23)cc(OC(F)F)c1C(=O)NC1CC1` [Cpd 95, N-cyclopropyl-2-(difluoromethoxy)-6-methoxy-4-(6-tetrahydropyran-4-ylpyrazolo[1,5-a]pyrimidin-3-yl)benzamide], the EC50 under setting [2] fell in the range of 1000 to 5000 nM.

As to `COc1cc(-c2cnn3cc(C(C)(C)C#N)ccc23)cc(OC(F)F)c1C(=O)N[C@@H]1C[C@H]1F` (single isomer, unassigned) [Cpd 257, 4-[6-(1-cyano-1-methyl-ethyl)pyrazolo[1,5-a]pyridin-3-yl]-2-(difluoromethoxy)-N-(2-fluorocyclopropyl)-6-methoxy-benzamide], the EC50 under setting [1] is 100 to 1000 nM.

As to `COc1cc(-c2cnn3cc(C(C)(C)N)ccc23)cc(OC(F)F)c1C(=O)N[C@@H]1C[C@@H]1F` [Cpd 256, 4-[6-(1-amino-1-methyl-ethyl)pyrazolo[1,5-a]pyridin-3-yl]-2-(difluoromethoxy)-N-[(1R,2S)-2-fluorocyclopropyl]-6-methoxy-benzamide], under setting [2], the EC50 lay in the range of 1000 to 5000 nM.

On to `COc1cc(-c2cnc3cc(C(C)(C)C#N)ccn23)cc(OC(F)F)c1C(=O)NCC1CC1` [Cpd 39, 4-[7-(1-cyano-1-methyl-ethyl)imidazo[1,2-a]pyridin-3-yl]-N-(cyclopropylmethyl)-2-(difluoromethoxy)-6-methoxy-benzamide], for which the EC50 under setting [2] lay in the range of 100 to 1000 nM.

With `CC[C@](C)(O)c1ccn2c(-c3cc(OC)c(C(=O)NC4CC4)c(OC(F)F)c3)cnc2c1` (single isomer, unassigned) [Cpd 164, N-cyclopropyl-2-(difluoromethoxy)-4-[7-(1-hydroxy-1-methyl-propyl)imidazo[1,2-a]pyridin-3-yl]-6-methoxy-benzamide], under setting [2], the EC50 was 100 to 1000 nM.

Consider `COc1cc(-c2cnc3cc(C4(O)CCOCC4)ccn23)cc(OC(F)F)c1C(=O)NC1CC1` [Cpd 170, N-cyclopropyl-2-(difluoromethoxy)-4-[7-(4-hydroxytetrahydropyran-4-yl)imidazo[1,2-a]pyridin-3-yl]-6-methoxy-benzamide], for which the EC50 under setting [2] was in the range of 1000 to 5000 nM.

Take `COc1cc(-c2cnc3cc(C4(C#N)CCOCC4)ccn23)cc(OC)c1C(=O)NCC(F)(F)F` [Cpd 107, 4-[7-(4-cyanotetrahydropyran-4-yl)imidazo[1,2-a]pyridin-3-yl]-2,6-dimethoxy-N-(2,2,2-trifluoroethyl)benzamide]: under setting [2], the EC50 is 1000 to 5000 nM.

As for `COc1cc(-c2cnc3cc(C4COC4)ccn23)cc(OC(F)F)c1C(=O)N[C@@H]1C[C@@H]1F` [Cpd 206, 2-(difluoromethoxy)-N-[(1R,2S)-2-fluorocyclopropyl]-6-methoxy-4-[7-(oxetan-3-yl)imidazo[1,2-a]pyridin-3-yl]benzamide], the EC50 under setting [2] lay in the range of 100 to 1000 nM.

Take `COc1cc(-c2cnn3cc(C4(C(N)=O)CCC4)ccc23)cc(OC(F)F)c1C(=O)N[C@@H]1C[C@@H]1F` [Cpd 254, 4-[6-(1-carbamoylcyclobutyl)pyrazolo[1,5-a]pyridin-3-yl]-2-(difluoromethoxy)-N-[(1R,2S)-2-fluorocyclopropyl]-6-methoxy-benzamide]: under setting [2], the EC50 fell in the range of 1000 to 5000 nM.

Regarding `COc1cc(-c2cnc3cc(C(C)(C)C#N)ccn23)cc(OC(F)F)c1C(=O)N[C@@H]1C[C@@H]1F` [Cpd 79, 4-[7-(1-cyano-1-methyl-ethyl)imidazo[1,2-a]pyridin-3-yl]-2-(difluoromethoxy)-N-[(1R,2S)-2-fluorocyclopropyl]-6-methoxy-benzamide], the EC50 under setting [2] lay within 100 to 1000 nM.

Consider `COc1cc(-c2cnc3cc([C@@](C)(O)C4CC4)ccn23)cc(OC(F)F)c1C(=O)NC1CC1` (single isomer, unassigned) [Cpd 162, N-cyclopropyl-4-[7-(1-cyclopropyl-1-hydroxy-ethyl)imidazo[1,2-a]pyridin-3-yl]-2-(difluoromethoxy)-6-methoxy-benzamide], for which the EC50 under setting [2] lay in the range of 100 to 1000 nM.

For the compound `COc1cc(-c2cnc3cc(C4(F)COC4)ccn23)cc(OC(F)F)c1C(=O)NC1CC1` [Cpd 207, N-cyclopropyl-2-(difluoromethoxy)-4-[7-(3-fluorooxetan-3-yl)imidazo[1,2-a]pyridin-3-yl]-6-methoxy-benzamide], under setting [2], the EC50 lay within 100 to 1000 nM.

Take `COc1cc(-c2cnc3cc([C@@](C)(C#N)CO)ccn23)cc(OC(F)F)c1C(=O)NC1CC1` (single isomer, unassigned) [Cpd 189, 4-[7-(1-cyano-2-hydroxy-1-methyl-ethyl)imidazo[1,2-a]pyridin-3-yl]-N-cyclopropyl-2-(difluoromethoxy)-6-methoxy-benzamide]: under setting [2], the EC50 lay in the range of 1000 to 5000 nM.

For the compound `CC[C@](C)(O)c1ccn2c(-c3cc(OC)c(C(=O)NC4CC4)c(OC(F)F)c3)cnc2c1` (single isomer, unassigned) [Cpd 165, N-cyclopropyl-2-(difluoromethoxy)-4-[7-(1-hydroxy-1-methyl-propyl)imidazo[1,2-a]pyridin-3-yl]-6-methoxy-benzamide], the EC50 under setting [3] lay in the range of 100 to 1000 nM.

Take `COc1cc(-c2cnc3cc([C@@](C)(O)C4CC4)ccn23)cc(OC(F)F)c1C(=O)NC1CC1` (single isomer, unassigned) [Cpd 163, N-cyclopropyl-4-[7-(1-cyclopropyl-1-hydroxy-ethyl)imidazo[1,2-a]pyridin-3-yl]-2-(difluoromethoxy)-6-methoxy-benzamide]: the EC50 under setting [3] was 100 to 1000 nM.
